Source: patent US20190231893A1, “METHODS OF TREATING CANCER” (priority 2017, published 2019)
“Also recorded” adds a separate entry of the source. Square brackets hold non-standard residues; d marks the D form. Peptide text beside a SMILES is read from it. * marks the point of attachment. Dolaproine = CO[C@@H]([C@@H]1CCCN1)[C@@H](C)C(=O)O; Dil = CC[C@H](C)[C@H](NC)[C@@H](CC(=O)O)OC; X1 = C[C@@H](N*)[C@@H](O)c1ccccc1; NMeV = CN[C@H](C(=O)O)C(C)C

Columns and labels:
A431 cells = assay: Drug matrix screen: siRNA knockdown and cell viability; assay type: cell-based; settings: for shift in drug sensitivity (cell viability) upon siRNA knockdown of γ-tubulin ring complex genes: knockdown of GCNT1, TUBGCP4 and TUBGCP6 relative to CON3 siRNA control, at drug concentrations yielding <60% cell viability; for drug sensitivity / cell killing upon EGFR siRNA knockdown: EGFR siRNA control
Experimental: An siRNA library was produced based targeting genes identified from methods listed above. The siRNA panel in 96 well plates (Dharmacon) was diluted to 66 nM/15 μl was combined with equal volume of RNAiMax Lipofectamine (Life Technologies) diluted to 0.15×/15 μl, pipette mixed thoroughly then allowed to incubate for 15 minutes at room temperature before addition of 30 μl/well to A431, U87MG_del, and U87MG_EGFR cell lines seeded in 96 well plates at 4500 cells/70 μl/well. Plates were incubated in 37° C. 5% CO2 incubator for 18-24 hours prior to addition of 10 μl drug (MMAE: 1.5 nM final conc., depatuxizumab mafodotin: 18 nM final conc.) or vehicle (phosphate-buffered saline, PBS). Cell viability was assessed post 48 hour drug treatment via Cell Titer Glo (Promega) for A431 cell line or SRB cell stain assay (Sulforhodamine B assay and Chemosensitivity, Voigt et al.) for U87MG_del2.7 and U87MG_EGFR cell lines following recommended protocols with the following exception: media was aspirated off Cell Titer Glo (CTG) plates and 100 μl 1:5 diluted CTG in PBS added per well, covered with foil, rotated to mix 15 minutes prior to reading on Victor chemilluminescent reader. The assay was performed using triplicate plates per drug/vehicle as well as last row of plate contained control siRNA CON3 incubated with vehicle to control for any plate effect. Each plate also contained a row of positive and negative siRNA controls treated with drug for normalization of effects of siRNA KD within and across plates. Effect of siRNA KD assessed via combination of triplicate reactions per siRNA/drug normalized to CON3 siRNA/PBS control and then normalized to CON3 siRNA/drug to determine shift to drug with siRNA KD.
A protocol similar to high-throughput screen was used, except siRNA was loaded in a 3×6 well matrix in a 96 well plate with the following siRNAs (CON3, GCNT1, TUBGCP4, TUBGCP6) per quarter plate. EGFR siRNA was loaded in exterior rows as a control. Drug was diluted to 5 serial-5 dilutions (MMAE, Vincristine, Paclitaxel) or 5 serial 3-dilutions (depatuxizumab mafodotin) along with no drug control and added to triplicate wells (starting concentrations MMAE: 100 nM; Vincristine: 2000 nM; Paclitaxel: 2000 nM; depatuxizumab mafodotin: 99 nM).

[1] = system: glioblastoma with EGFR amplification; assay: Phase 1 study M12-356 (NCT01800695), tumor response; assay type: in vivo, human; settings: patients with EGFR-amplified rGBM; FIG. 1
Experimental: In a Phase 1 study (M12-356, NCT01800695) of depatuxizumab mafodotin in patients with newly diagnosed glioblastoma (nGBM) and recurrent glioblastoma (rGBM) with EGFR amplification, responses in patients with rGBM correlated with EGFR amplification in pre-treatment, archival tumor tissue. Gene amplification was determined by fluorescence in situ hybridization (FISH). Two probes were used: locus-specific EGFR probe and chromosome enumeration probe (CEP) 7. FIG. 1 illustrates change in tumor size in patients with EGFR-amplified rGBM.
Tumor samples for study were from biopsies taken prior to entry onto depatuxizumab mafodotin trial M12-356 (NCT01800695). M12-356 is an open-label, phase 1, 3-arm study: Arm A (depatuxizumab mafodotin+radiation/temozolomide (TMZ) in newly diagnosed GBM; Arm B (depatuxizumab mafodotin+TMZ in newly diagnosed GBM as adjuvant therapy, or in recurrent GBM); and Arm C (depatuxizumab mafodotin monotherapy in recurrent GBM). Arms B and C had and expansion cohort in subjects with centrally confirmed EGFR amplified recurrent GBM.

Row | Compound | shift in drug sensitivity (cell viability) upon siRNA knockdown of γ-tubulin ring complex genes (A431 cells; FIG. 3) | shift in drug sensitivity (cell viability) upon siRNA knockdown of γ-tubulin ring complex genes (A431 cells; FIG. 3, listed as vincristine) | drug sensitivity / cell killing upon EGFR siRNA knockdown (A431 cells; FIG. 3) | drug sensitivity / cell killing upon EGFR siRNA knockdown (A431 cells; FIG. 3, listed as depatux-m) | shift in drug sensitivity (cell viability) upon siRNA knockdown of γ-tubulin ring complex genes (A431 cells; FIG. 3, listed as depatux-m) | clinical response (change in tumor size) [1]
1 | CC[C@H](C)[C@@H]([C@@H](CC(=O)N1CCC[C@H]1[C@H](OC)[C@@H](C)C(=O)N[C@H](C)[C@@H](O)c1ccccc1)OC)N(C)C(=O)[C@@H](NC(=O)[C@@H](NC)C(C)C)C(C)C [MMAE, monomethyl auristatin E] (H-[NMeV]V[Dil][Dolaproine]-X1) | impacted sensitivity; also recorded: more sensitive; also recorded: increased sensitivity | – | – | – | – | –
2 | CC(=O)O[C@H]1C(=O)[C@@]2(C)[C@H]([C@H](OC(=O)c3ccccc3)[C@]3(O)C[C@H](OC(=O)[C@H](O)[C@@H](NC(=O)c4ccccc4)c4ccccc4)C(C)=C1C3(C)C)[C@]1(OC(C)=O)CO[C@@H]1C[C@@H]2O [Paclitaxel] | no additional shift in sensitivity | – | – | – | – | –
3 | CC[C@]1(O)C[C@H]2CN(CCc3c([nH]c4ccccc34)[C@@](C(=O)OC)(c3cc4c(cc3OC)N(C=O)[C@H]3[C@@](O)(C(=O)OC)[C@H](OC(C)=O)[C@]5(CC)C=CCN6CC[C@]43[C@@H]65)C2)C1 [Vincristine] | increased sensitivity | impacted sensitivity; also recorded: more sensitive | – | – | – | –
4 | depatuxizumab mafodotin | increased sensitivity | – | loss of drug sensitivity | abrogated drug internalization and cell killing | impacted sensitivity; also recorded: more sensitive; also recorded: sensitization | not all patients with EGFR amplification responded
